The source of these data is ChEMBL document CHEMBL1201862, “PubChem BioAssay data set” (2004).

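These data come from cells grown in 96-well plates and exposed to compound for 48 hours at five concentrations. The concentration for 50% growth inhibition is given as GI50.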 Calls of active or inactive are those of the source. Rule as the data show it: active = GI50 up to about 1.1 µM and inactive = higher. Bounds are passed on as bounds.

Some test systems named below: UACC-62; ACHN; SK-MEL-2; HCT-15; RPMI-8226; OVCAR-8; UACC-257; NCI-H460; EKVX; IGROV-1; SNB-19; M14; OVCAR-3; NCI/ADR-RES; HCT-116; BT-549; K562; NCI-H226; SK-MEL-28; SK-OV-3.
What all share (assay): NCI tumour cell line growth inhibition, 48 h

Regarding `CCOC(=O)c1c(N=C(S)Nc2ccc(Cl)cc2)sc2c1CCN(C)C2`, the GI50 in the assay on UACC-62 is > 100 µM (inactive); in the assay on ACHN, > 100 µM (inactive); with SK-MEL-2, > 100 µM (inactive); in the assay on HCT-15, 97.9 µM; in the assay with RPMI-8226, 33.9 µM (inactive); in the assay on OVCAR-8 it was > 100 µM (inactive). Also, the GI50 in the assay with UACC-257 is > 100 µM (inactive); with NCI-H460, 94 µM (inactive); in the assay on EKVX, > 100 µM (inactive); in the assay with IGROV-1 it was > 100 µM (inactive); in the assay on SNB-19 it was > 100 µM (inactive); in the assay with M14 it was > 100 µM (inactive). Besides, the GI50 in the assay on OVCAR-3 was 74 µM (inactive); in the assay on NCI/ADR-RES it was > 100 µM (inactive); in the assay with HCT-116, > 100 µM (inactive); in the assay on BT-549, 78.9 µM (inactive); in the assay on K562 it was 61 µM (inactive); in the assay with NCI-H226, > 100 µM (inactive).

As for `O=C(CN1CCCC1=O)CS(=O)(=O)c1ccccc1`, the GI50 with UACC-62, in the assay with ACHN, in the assay on SK-MEL-2, in the assay with RPMI-8226, with OVCAR-8 and in the assay with SK-MEL-28 was > 100 µM (inactive) throughout. The GI50 with UACC-257, with NCI-H460, with EKVX, in the assay on IGROV-1, in the assay with SNB-19 and in the assay on M14 was > 100 µM (inactive) each time. The GI50 in the assay with OVCAR-3, in the assay with NCI/ADR-RES, with HCT-116, in the assay with BT-549, in the assay with K562 and in the assay on NCI-H226 was > 100 µM (inactive) throughout.

`CCOC(=O)CC(=O)NC1CC2CCC1(C)C2(C)C` (configuration not stated): the GI50 with UACC-62 was > 100 µM (inactive); with ACHN it was > 100 µM (inactive); in the assay with HCT-15, more than 100 µM; in the assay with RPMI-8226, > 100 µM (inactive); with OVCAR-8, > 100 µM (inactive); with SK-MEL-28, > 100 µM (inactive). The GI50 in the assay on SK-OV-3, in the assay with UACC-257, in the assay on NCI-H460, with EKVX, in the assay with IGROV-1 and in the assay on SNB-19 was > 100 µM (inactive) in each case. In addition, the GI50 in the assay with M14, in the assay with OVCAR-3, in the assay with NCI/ADR-RES, in the assay with HCT-116, in the assay with BT-549 and with K562 was > 100 µM (inactive) throughout. In addition, the GI50 in the assay with NCI-H226 is > 100 µM (inactive).

Turning to `CC[C@@H]1CC[C@@H]2[C@H](CC[C@]3(C)[C@@H](O[N+](=O)[O-])CC[C@@H]23)[C@H]1C(C)=O`, the GI50 was 28.4 µM (inactive) with ACHN; 22.2 µM in the assay with HCT-15; 9.02 µM (inactive) with RPMI-8226; 37.2 µM (inactive) with OVCAR-8; 30.3 µM (inactive) with SK-MEL-28; 20 µM (inactive) with UACC-257. In addition, the GI50 with NCI-H460 is 27.4 µM (inactive); with EKVX, 16.8 µM (inactive); in the assay on IGROV-1 it was 34.7 µM (inactive); in the assay on SNB-19, 56.5 µM (inactive); with M14, 30.8 µM (inactive); in the assay on OVCAR-3, 64.1 µM (inactive). Besides, the GI50 in the assay with NCI/ADR-RES was 21.8 µM (inactive); with HCT-116 it was 23.7 µM (inactive); in the assay on BT-549 it was 50 µM (inactive); in the assay with K562, 34.8 µM (inactive); with NCI-H226 it was 26.5 µM (inactive).

Take `O=C(CC(=O)N1N=C(N2CCCCC2)CC1c1ccccc1)Nc1ccccc1` (configuration not stated): the GI50 in the assay with UACC-62 was > 100 µM (inactive); in the assay with ACHN, > 100 µM (inactive); with SK-MEL-2, > 100 µM (inactive); with HCT-15 it was more than 100 µM; with OVCAR-8, > 100 µM (inactive); with SK-MEL-28 it was > 100 µM (inactive). The GI50 in the assay with UACC-257, in the assay on NCI-H460, in the assay on EKVX, in the assay with IGROV-1, in the assay with SNB-19 and with M14 was > 100 µM (inactive) in each case. For the same compound, the GI50 in the assay with OVCAR-3, in the assay with NCI/ADR-RES, with HCT-116, in the assay on BT-549 and in the assay with NCI-H226 was > 100 µM (inactive) throughout.

As for `S=C(N/N=C(/c1ccccc1)c1ccccn1)N1CCCCC1`, the GI50 in the assay with UACC-62 is 0.16 µM (active); with ACHN it was < 0.0443 µM (active); in the assay with SK-MEL-2 it was 0.741 µM (active); in the assay on HCT-15, less than 0.0234 µM; in the assay on RPMI-8226 it was < 0.0202 µM (active); in the assay with OVCAR-8 it was < 0.0281 µM (active). The GI50 with SK-MEL-28 is 0.604 µM (active); in the assay with SK-OV-3, < 0.0387 µM (active); in the assay on UACC-257, < 0.0183 µM (active); in the assay on NCI-H460, < 0.0211 µM (active); with EKVX it was < 0.0318 µM (active); with IGROV-1, < 0.0164 µM (active). Further, the GI50 in the assay with SNB-19 was 0.966 µM (active); with M14, 0.001 µM (active); in the assay on OVCAR-3 it was 0.01 µM (active); in the assay with HCT-116, 0.01 µM (active); with BT-549, 1.25 µM (inactive); in the assay with K562 it was < 0.0161 µM (active). In addition, the GI50 in the assay with NCI-H226 is 0.134 µM (active).

For `Nc1ccc(Oc2ccc(C34CC5C6CC7(c8ccc(Oc9ccc(N)cc9)cc8)CC5C(C3)C(C7)C6C4)cc2)cc1`, the GI50 with UACC-62 is > 100 µM (inactive); in the assay with ACHN it was > 100 µM (inactive); with SK-MEL-2 it was > 100 µM (inactive); with HCT-15, more than 100 µM; in the assay with RPMI-8226, > 100 µM (inactive); in the assay on OVCAR-8, > 100 µM (inactive). In addition, the GI50 in the assay on SK-MEL-28, in the assay with UACC-257, in the assay on NCI-H460, in the assay with EKVX, with IGROV-1 and with SNB-19 was > 100 µM (inactive) each time. For the same compound, the GI50 in the assay with M14, with OVCAR-3, with NCI/ADR-RES, in the assay with HCT-116, with BT-549 and in the assay on K562 was > 100 µM (inactive) throughout. Also, in the assay on NCI-H226, the GI50 was > 100 µM (inactive).

`COC(=O)c1cn(CCCCO)nn1`: the GI50 in the assay on UACC-62 is > 100 µM (inactive); in the assay on ACHN it was > 100 µM (inactive); in the assay on SK-MEL-2, > 100 µM (inactive); in the assay with HCT-15 it was more than 100 µM; in the assay on OVCAR-8, > 100 µM (inactive); with SK-MEL-28, > 100 µM (inactive). For the same compound, the GI50 with UACC-257, in the assay with NCI-H460, in the assay with EKVX, in the assay with IGROV-1, in the assay with SNB-19 and in the assay with NCI/ADR-RES was > 100 µM (inactive) throughout. Moreover, the GI50 in the assay on HCT-116, in the assay with BT-549 and with NCI-H226 was > 100 µM (inactive) throughout.

Regarding `CC[n+]1[b-](C(C)(C)C)n(/N=C(\C)C(C)(C)C)[b-](C(C)(C)C)[n+]1CC`, the GI50 is > 100 µM (inactive) with UACC-62; > 100 µM (inactive) with ACHN; > 100 µM (inactive) in the assay on SK-MEL-2; more than 100 µM in the assay on HCT-15; > 100 µM (inactive) in the assay with OVCAR-8; > 100 µM (inactive) in the assay on SK-MEL-28. The GI50 in the assay on UACC-257, in the assay with NCI-H460, with EKVX, in the assay on IGROV-1, with SNB-19 and with M14 was > 100 µM (inactive) each time. The GI50 in the assay on OVCAR-3 is > 100 µM (inactive); with NCI/ADR-RES it was 87.1 µM (inactive); in the assay with HCT-116, > 100 µM (inactive); in the assay with BT-549 it was > 100 µM (inactive); in the assay on K562, 71.8 µM (inactive); in the assay with NCI-H226, 72.9 µM (inactive).

Consider `C=C1C(=O)C=C[C@]2(C)CC[C@H]3C(=C)C(=O)O[C@@H]3[C@@H]12`, for which the GI50 with UACC-62 is 1.96 µM (inactive); in the assay on ACHN it was 0.9 µM (active); in the assay with SK-MEL-2, 2.55 µM (inactive); in the assay with HCT-15, 0.785 µM; with RPMI-8226 it was 0.346 µM (active); in the assay with OVCAR-8, 1.53 µM (inactive). Moreover, the GI50 is 1.91 µM (inactive) in the assay with SK-MEL-28; 8.73 µM (inactive) in the assay on SK-OV-3; 2.67 µM (inactive) with UACC-257; 12.1 µM (inactive) in the assay with NCI-H460; 3.17 µM (inactive) with EKVX; 1.29 µM (inactive) with IGROV-1. The GI50 was 14.6 µM (inactive) with SNB-19; 1.76 µM (inactive) with M14; 1.85 µM (inactive) in the assay with OVCAR-3; 2.34 µM (inactive) with NCI/ADR-RES; 0.195 µM (active) in the assay with HCT-116; 2.35 µM (inactive) with BT-549. The GI50 in the assay with K562 is 1.39 µM (inactive).

On to `COc1cc2oc(=O)cc(C)c2cc1O`, for which the GI50 was > 100 µM (inactive) with ACHN; > 100 µM (inactive) in the assay on SK-MEL-2; more than 100 µM in the assay with HCT-15; > 100 µM (inactive) in the assay on RPMI-8226; > 100 µM (inactive) in the assay with OVCAR-8; > 100 µM (inactive) in the assay with SK-MEL-28. Further, the GI50 in the assay on UACC-257, with NCI-H460, with EKVX, in the assay on IGROV-1, in the assay on SNB-19 and in the assay on M14 was > 100 µM (inactive) in each case. The GI50 with OVCAR-3, in the assay with NCI/ADR-RES, in the assay with HCT-116, in the assay on BT-549, with K562 and with NCI-H226 was > 100 µM (inactive) each time.
